Data published in PubChem BioAssay AID179 (DTP/NCI, 2004).
Values joined by “and” are separate entries in the source; they are usually repeats but may differ in a detail not shown here. Identical values can stand only once. Active and inactive are the calls of the source.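 How the source made its calls: active means compounds giving half or more protection of infected cells from virus-caused growth loss, again on retest; inactive means the rest.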 Where a SMILES comes first, the peptide text is derived from it. [ ]: non-standard residue; d: D form. The star is where a group is joined. ξ: configuration not given here. NMeN = CN[C@@H](CC(N)=O)C(=O)O; NMeV = CN[C@H](C(=O)O)C(C)C; ξNMeV = CNC(C(=O)O)C(C)C; Boc = CC(C)(C)OC(=O)*; ξNMeA = CNC(C)C(=O)O

Test system: CEM cells HIV-1 protection, formazan growth assay
Assay: NCI AIDS Antiviral Assay
Conditions: for IC50: measured here: growth of uninfected CEM cells
Method in brief: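 Screen of anti-HIV-1 activity in human CEM cells using a formazan-based growth measurement at five drug concentrations. Hits with 50% or greater protection were repeated, and confirmation required reproducible complete protection.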

SMILES | EC50 | IC50 | outcome
COC(=O)CCCC=C(c1cc(F)c(OC)c(C(=O)OC)c1)c1cc(F)c(OC)c(C(=O)OC)c1 | 1.7 µM | 64.6 µM | –
O=C1C2C3C=CC(O3)C2C(=O)N1/N=C\C(O)C(O)C(O)C(O)CO (stereo unspecified) | > 129 µM | > 129 µM | –
O=C(O)C1Cc2[nH]c3ccccc3c2C2CCCC12 (stereo unspecified) | > 708 µM | 363 µM | –
CCn1c(=O)c2c3cc(O)ccc3oc2c2ccc(O)cc21 | > 200 µM | > 200 µM | –
Cc1ccc(S(=O)(=O)NC(=O)NC2=NC(C)(C)N(c3ccc(Cl)c(Cl)c3)C(N)=N2)cc1 | > 200 µM | 4.27 µM | –
CCOC(=O)N1CCC2(CC1)C[C@](Sc1ccccc1)(C(C)=O)[C@H](C)O2 | > 200 µM | > 200 µM | –
COC(=O)N/N=C(\C)CC(=O)Nc1cccc([N+](=O)[O-])c1 | > 447 µM | > 447 µM | –
Cc1sc2nc3n(c(=O)c2c1C)N=C(c1ccc([N+](=O)[O-])cc1)CS3 | > 200 µM | > 200 µM | –
C=C1c2nc3ccccc3n2C=C(c2ccc(OC)cc2)N1c1ccc(OC)cc1 | > 200 µM | 33.1 µM | –
CSc1c(S(C)=O)c2ccccc2n1C (stereo unspecified) | > 200 µM | > 200 µM | –
NC(CCCC(N)P(=O)(O)c1ccccc1)P(=O)(O)c1ccccc1 (stereo unspecified) | > 661 µM | > 661 µM | –
CC(C)CC(NC(=O)C(Cc1ccc(O)cc1)NC(=O)C(CO)NC(=O)C(CCC(=O)O)NC(=O)C1CCCN1C(=O)C(CC(C)C)NC(=O)C(C)NC(=O)CNC(=O)C(N)CCC(=O)O)C(=O)NC(Cc1c[nH]c2ccccc12)C(=O)O (stereo unspecified) (H-EGALPESYLW-OH; configuration not given here) | – | – | inactive
CCCCOP(=O)(/C=C\c1ccccn1)OCCCC | > 120 µM | > 120 µM | –
COC1C(O)CC(=O)OC(C)C/C=C/C=C/C(OC2CCC(N(C)C)C(C)O2)C(C)CC(CC=O)C1OC1OC(C)C(OC2CC(C)(O)C(O)C(C)O2)C(N(C)C)C1O (stereo unspecified) | > 200 µM | > 200 µM | –
CCC12C=CCN3CC[C@]4(C(=C(C(=O)OC)[C@@H]1Nc1ncnc5c1ncn5C1OC(COC(C)=O)C(OC(C)=O)C1OC(C)=O)Nc1ccccc14)C32 (stereo partly specified) | > 13.8 µM | 7.76 µM | –
C[N+]12C=CC=C1C(N1CCCC1)c1sc(-c3ccc(Cl)cc3)cc12 (stereo unspecified) | > 200 µM | 12.9 µM | –
COC(=O)C(C)N(C)C(=O)[C@H](CC(N)=O)N(C)C(=O)[C@@H]1CCCN1C(=O)[C@H](C(C)C)N(C)C(=O)C(C(C)C)N(C)C(=O)[C@@H](NC(=O)OC(C)(C)C)C(C)C (stereo partly specified) (Boc-V[ξNMeV][NMeV]P[NMeN][ξNMeA]-OMe) | > 324 µM | > 324 µM | –
C=C1C(=O)C23[C@H](O)C1CC[C@H]2[C@]12COC3(O)[C@@H](O)[C@@H]1C(C)(C)CC[C@@H]2O | > 347 µM | 1.95 µM | –
O=C1CC(C[C@H](O)C2CCCCC2O)CC(=O)N1Cc1ccccc1 (stereo partly specified) | > 200 µM | > 200 µM | –

SMILES | EC50 | IC50 | outcome
OCC12CCCC(CO)(COC1)C2O (stereo unspecified) | > 200 µM | > 200 µM | –
CC(C)(C)c1cc(C2COC(=O)COCCOCC(=O)OCCOCCO2)cc(C(C)(C)C)c1O (stereo unspecified) | > 200 µM | 178 µM | –
CC(=O)Oc1cc(C(F)(F)F)ccc1C(=O)OC1(C)OC(=O)c2ccc(C(F)(F)F)cc2O1 (stereo unspecified) | > 200 µM | 41.7 µM | –
NC12CCC(CC1=O)C2 (stereo unspecified) | > 200 µM | > 200 µM | –
CSC1(Cc2ccccn2)C(=O)Nc2cccc([N+](=O)[O-])c21 (stereo unspecified) | > 200 µM | 31.6 µM | –
c1ccc([P+](Cc2ccccc2C[P+](c2ccccc2)(c2ccccc2)c2ccccc2)(c2ccccc2)c2ccccc2)cc1 | > 200 µM | 129 µM and 107 µM | –
Cc1ccc(Nc2nc(C)c(C(/C=C/c3ccc4c(c3)OCO4)=N/Nc3ccc([N+](=O)[O-])cc3[N+](=O)[O-])s2)c([N+](=O)[O-])c1 | > 60.3 µM | 55 µM | –
O=C(CSc1nnc(-c2ccc(N=Cc3ccc(Cl)cc3)cc2)o1)Nc1cccc([N+](=O)[O-])c1 | > 5.5 µM | 2.24 µM | –
CCCCOC(=O)/C=C(\Br)C(=O)OCCCC | – | – | inactive
COC(=O)/C=C(\C)CCC1SC1(C)C (stereo unspecified) | > 100 µM | > 100 µM | –
CC1=NNC(=O)C1C1C(=O)NN=C(c2c[nH]c3ccccc23)C1Br (stereo unspecified) | > 200 µM | 95.5 µM | –
O=C(NCCCCCCO)c1cccc2cc3ccccc3nc12 | > 200 µM | 18.6 µM | –
CSc1cc(-c2ccccn2)nc(-c2ccccn2)c1.CSc1cc(-c2ccccn2)nc(-c2ccccn2)c1.[Mn+2].[O-][Cl+3]([O-])([O-])[O-] | > 0.2 µM | 0.0631 µM | –
CC(C)N1CCOC(c2ccc(O)c(O)c2)C1 (stereo unspecified) | > 200 µM | 95.5 µM | –
CC(=O)c1cccn1/C=C(\OC(=O)OC(C)(C)C)c1ccc[nH]1 | 155 µM | 162 µM | –
CC1(Cl)CC2C(CC1Sc1nnnn1-c1ccccc1)C2(C)C (stereo unspecified) | > 20.9 µM | > 20.9 µM | –
O=C1c2ccccc2C(=O)N1/N=C\c1ccc(O)cc1 | > 135 µM | > 135 µM | –
O=C(O)CCC(=O)Nc1ccc2c(c1)S(=O)(=O)N(CC(=O)O)C2=O | > 200 µM | > 200 µM | –
COc1cc(C2c3cc4c(cc3C(O)C3CCC(=O)N23)OCO4)cc(OC)c1OC (stereo unspecified) | > 200 µM | 18.6 µM | –

SMILES | EC50 | IC50 | outcome
COC(=O)C1=C(C)C(=O)[C@H]2C(C(=O)OC)CCCC[C@@H]12 (stereo partly specified) | > 200 µM | 129 µM | –
Nc1ncnc2oc(-c3ccccc3)nc12 | > 195 µM | > 195 µM | –
COc1cccc(CCCNC(=O)Cc2cc(OC)c(OC)cc2CO)c1 | > 200 µM | 14.5 µM | –
CC(C)[Si]1(C(C)C)OCC2OC(n3ccc(=O)[nH]c3=O)C([Se]c3ccccc3)C2O[Si](C(C)C)(C(C)C)O1 (stereo unspecified) | > 200 µM | 10.7 µM | –
CN1CCC2(CC1)SC[C@H]1C(=O)N(c3ccc(Cl)cc3)C(=O)N12 | > 200 µM | 120 µM | –
CCCCN(CCCC)C1CCC(Nc2ccnc3cc(Cl)ccc23)CC1 (stereo unspecified) | > 200 µM | 25.7 µM | –
O=C(/C(=C/c1cccc([N+](=O)[O-])c1)c1ccccc1)c1ccccc1 | > 6.03 µM | 4.07 µM | –
S=C(NC/C(Br)=C/Br)Nc1cccc2ccccc12 | > 200 µM | 36.3 µM | –
OCC1(CO)CSSC1 | 132 µM | 1510 µM | –
O=C1CCC(=O)c2c1c(O)c1ccncc1c2O | – | – | inactive
COC1=CC23CCCN2CCc2cc4c(cc2C3C1O)OCO4 (stereo unspecified) | – | – | inactive
O=C1c2ccccc2S(=O)(=O)N1Sc1ccccc1[N+](=O)[O-] | > 200 µM | 17 µM | –
O=C1Nc2ccccc2/C1=N\[O-].O=C1Nc2ccccc2/C1=N\[O-].[Cu+2] | > 200 µM | > 200 µM | –
COc1ccc2c(c1)-c1nn(CCCN(C)C)c3ccc([N+](=O)[O-])c(c13)N2 | > 537 µM | 0.17 µM | inactive
N[C@H](C(=O)O)[C@H](Cl)CC(=O)O | > 245 µM | > 245 µM | –
Cc1ccc(S(=O)(=O)/C(C#N)=C/NC(=S)Nc2ccccc2)cc1 | 170 µM | > 200 µM | –
Cc1ccc2c3nc4ccccc4c-3csc2c1 | 0.17 µM | 0.363 µM | –
CC[C@](O)(C(=O)O)c1cc2n(c(=O)c1CO)Cc1cc3ccccc3nc1-2 | > 0.1 µM | 0.012 µM | –
CCCCOP(=O)(/C=C/c1ccc([N+](=O)[O-])cc1)OCCCC | > 20.9 µM | > 20.9 µM | –
